Data set [1] relates to H22 murine hepatocarcinoma cell line. The data set is described as follows: In vitro cell proliferation assay (CellTiter-Glo) in H22 murine hepatocarcinoma cell line. It counts as cell-based. The note with it: for anti-proliferative effect on H22 cell line: 1 μM and 0.1, in words; for viability at 0.1 µM / viability at 1 µM: H22, 72 h; for viability at 0.1 µM: read-out: Cell viability (%), 0.1 μM, 72 h, H22 cells; for viability at 1 µM: read-out: Cell viability (%), 1 μM, 72 h, H22 cells. The procedure: Methods: • (1) Cells were cultured in RPMI-1640 medium supplemented with 10% FBS, 100 U/ml penicillin, and […] streptomycin at 37° C. and 5% CO2 atmosphere. […] The anti-proliferative activity of amperozide, nepicastat, and paclitaxel was tested in the H22 murine hepatocarcinoma cell line according to the experimental procedure described in Example 1.

For data set [2] the following is noted: clinical dosage of amperozide 10 mg/day; read-out: plasma maximal concentration (Cmax); cited from earlier work.
Data set [3] has as its system H22 murine hepatic cancer xenograft. The experiment in a line: In vivo tumor growth, H22 murine hepatic cancer xenograft model (Example 4). More on the design: species or system Mouse (Mus Musculus). The procedure:
(§1) Experiments using the murine H22, CT-26 and EMT-6 xenograft models were performed as described below.
(§2) Cells were cultured in RPMI-1640 medium supplemented with 10% FBS at 37° C. in an atmosphere of 5% CO2 in air. The tumor cells were routinely subcultured three times weekly. The cells that grew in an exponential growth phase were harvested and counted for tumor inoculation.
(§3) Mice (female, 6-8 weeks old) were inoculated subcutaneously at the right flank with the tumor cells (H22, EMT-6, or CT-26) in 0.1 mL PBS for tumor development. When the tumor volume reached approximately 60-80 mm^3, the mice were grouped randomly according to the animal body weight and tumor volume. Each group had 5-8 tumor-bearing mice.
(§4) The major endpoint was to determine if tumor growth could be delayed or mice could be cured. Tumor volume was measured three times weekly in two dimensions using a caliper, and the volume was expressed in mm^3 using the formula: V=0.5 a×b^2, where a and b are the long and short diameters of the tumor, respectively. The T/C value (in percent) was an indication of antitumor effectiveness, where T and C were the mean volume of the treated and control groups, respectively, on a given day. The T-C value was calculated according to TV. T-C was calculated with T as the median time (in days) required for the treatment group tumors to reach a predetermined size (e.g., TV as 1000 mm^3), and C as the median time (in days) for the control group tumors to reach the same size. The body weights were measured and recorded at the same time to observe the toxicity of the compounds. The animals were sacrificed at the termination of the study.
(§5) Summary statistics, including mean and the standard error of the mean (SEM), are provided for the tumor volume of each group at each time point. A two-way analysis of variance (ANOVA) was performed to compare body weight, tumor volume and tumor volume change. A one-way ANOVA was performed to compare tumor weight. All data were analyzed using GraphPad Prism 5. p<0.05 was considered to be statistically significant.
The anti-cancer activity of amperozide and nepicastat was evaluated in a H22 murine hepatic cancer xenograft model according to the experimental procedure described in Example 2. Anti-cancer activity was evaluated by measuring changes in tumor volume.

For data set [4] the test system is unchanged. The experiment in a line: In vivo tumor growth, H22 murine hepatic cancer xenograft model, compared with anti-PD-1 mAb (Example 5). Further details: species or system Mouse (Mus Musculus). The following applies: p.o.; for Tumor Volume (mm^3): QD x 20 days; for T/C (%) / TGI (%) tumor growth inhibition: QD. The procedure: as §1, §2, §3, §4, §5
The anti-cancer activity of nepicastat, etamicastat and anti-PD-1 monoclonal antibody (mAb) was evaluated in a H22 murine hepatic cancer xenograft model according to the experimental procedure described in Example 2.

For the compound `CCNC(=O)N1CCN(CCCC(c2ccc(F)cc2)c2ccc(F)cc2)CC1` [Amperozide, amperozide], in data set [1], the “anti-proliferative effect on H22 cell line” value is given as “did not show any significant anti-proliferative effects”. In addition, the viability at 0.1 µM in data set [1] (Mus musculus) was determined as 100%. In addition, the viability at 1 µM in data set [1] (Mus musculus) amounted to 95.1%. In addition, in data set [1] (Mus musculus, calculated from FIG. 1, read-out: IC50 in H22 murine hepatocarcinoma cells proliferation), the IC50 was 38.8 µM. The Cmax in data set [2] is about 100 nM. Also, the “T-C (days) (Reach 1000 mm^3)” value in data set [3] (Amperozide 2 mg/kg) was 2 days; in data set [3] (Amperozide 6 mg/kg) it was 1 days. Also, the “Tumor Volume” value in data set [3] (Amperozide 2 mg/kg, day 5) is reported as 80 ± 9 mm^3; in data set [3] (Amperozide 2 mg/kg, day 7) it was 166 ± 19 mm^3; in data set [3] (Amperozide 2 mg/kg, day 9), 355 ± 36 mm^3; in data set [3] (Amperozide 2 mg/kg, day 12), 576 ± 48 mm^3; in data set [3] (Amperozide 2 mg/kg, day 14), 806 ± 31 mm^3; in data set [3] (Amperozide 2 mg/kg, day 16) it was 1,219 ± 39 mm^3. The “Tumor Volume” value in data set [3] (Amperozide 2 mg/kg, day 19) was 1,948 ± 158 mm^3; in data set [3] (Amperozide 2 mg/kg, day 19, listed as amperozide) it was 1948 mm^3; in data set [3] (Amperozide 6 mg/kg, day 5), 80 ± 9 mm^3; in data set [3] (Amperozide 6 mg/kg, day 7), 174 ± 26 mm^3; in data set [3] (Amperozide 6 mg/kg, day 9), 367 ± 51 mm^3; in data set [3] (Amperozide 6 mg/kg, day 12), 602 ± 77 mm^3. The “Tumor Volume” value is reported as 1,004 ± 75 mm^3 in data set [3] (Amperozide 6 mg/kg, day 14); 1,625 ± 101 mm^3 in data set [3] (Amperozide 6 mg/kg, day 16); 2,903 ± 315 mm^3 in data set [3] (Amperozide 6 mg/kg, day 19). For the same compound, the “T/C (%)” value in data set [3] (Amperozide 2 mg/kg, day 19) turned out to be 64.4%; in data set [3] (Amperozide 6 mg/kg, day 19), 95.9%. Besides, the “TGI (%) tumor growth inhibition” value in data set [3] (Amperozide 2 mg/kg, day 19) worked out at 35.6%; in data set [3] (Amperozide 6 mg/kg, day 19), 4.1%.
On to `NCCc1c[nH]c(=S)n1[C@H]1COc2c(F)cc(F)cc2C1` [Etamicastat, etamicastat], for which the “Tumor Volume (mm^3)” value in data set [4] (Etamicastat 80 mg/kg, day 3) came out at 56.40 ± 4.21 mm^3; in data set [4] (Etamicastat 80 mg/kg, day 6), 142.74 ± 14.75 mm^3; in data set [4] (Etamicastat 80 mg/kg, day 9), 325.41 ± 39.55 mm^3; in data set [4] (Etamicastat 80 mg/kg, day 13) it was 437.62 ± 48.77 mm^3; in data set [4] (Etamicastat 80 mg/kg, day 16), 645.29 ± 50.41 mm^3; in data set [4] (Etamicastat 80 mg/kg, day 19), 892.56 ± 131.83 mm^3. Moreover, the “Tumor Volume (mm^3)” value in data set [4] (Etamicastat 80 mg/kg, day 22) is 1210.52 ± 197.23 mm^3; in data set [4] (Etamicastat 80 mg/kg, day 22, listed as etamicastat), 1,210.52 mm^3; in data set [4] (Etamicastat 160 mg/kg, day 3), 56.42 ± 3.25 mm^3; in data set [4] (Etamicastat 160 mg/kg, day 6) it was 134.64 ± 14.18 mm^3; in data set [4] (Etamicastat 160 mg/kg, day 9) it was 270.71 ± 33.96 mm^3; in data set [4] (Etamicastat 160 mg/kg, day 13) it was 513.74 ± 103.91 mm^3. The “Tumor Volume (mm^3)” value in data set [4] (Etamicastat 160 mg/kg, day 16) is 825.29 ± 198.51 mm^3; in data set [4] (Etamicastat 160 mg/kg, day 19), 1167.51 ± 300.84 mm^3; in data set [4] (Etamicastat 160 mg/kg, day 22), 1309.12 ± 492.02 mm^3; in data set [4] (Etamicastat 160 mg/kg, day 22, listed as etamicastat), 1,309.12 mm^3. The “T/C (%)” value came to 70.42% in data set [4] (Etamicastat 80 mg/kg, day 22) and 76.16% in data set [4] (Etamicastat 160 mg/kg, day 22). Moreover, the “TGI (%) tumor growth inhibition” value is recorded as 29.58% in data set [4] (Etamicastat 80 mg/kg, day 22) and 23.84% in data set [4] (Etamicastat 160 mg/kg, day 22).
Take `CC(=O)O[C@H]1C(=O)[C@@]2(C)[C@H]([C@H](OC(=O)c3ccccc3)[C@]3(O)C[C@H](OC(=O)[C@H](O)[C@@H](NC(=O)c4ccccc4)c4ccccc4)C(C)=C1C3(C)C)[C@]1(OC(C)=O)CO[C@@H]1C[C@@H]2O` [Paclitaxel]: the “anti-proliferative effect on H22 cell line” value in data set [1] is reported as “strong inhibition effect”. For the same compound, the viability at 0.1 µM in data set [1] (Mus musculus) was 28.4%. In addition, in data set [1] (Mus musculus), the viability at 1 µM amounted to 20.8%. Also, in data set [3] (Paclitaxel 15 mg/kg), the “T-C (days) (Reach 1000 mm^3)” value is 2 days. The “Tumor Volume” value in data set [3] (Paclitaxel 15 mg/kg, day 5) is reported as 80 ± 9 mm^3; in data set [3] (Paclitaxel 15 mg/kg, day 7) it was 140 ± 17 mm^3; in data set [3] (Paclitaxel 15 mg/kg, day 9) it was 270 ± 48 mm^3; in data set [3] (Paclitaxel 15 mg/kg, day 12) it was 435 ± 60 mm^3; in data set [3] (Paclitaxel 15 mg/kg, day 14), 722 ± 105 mm^3; in data set [3] (Paclitaxel 15 mg/kg, day 16) it was 1,188 ± 206 mm^3. Also, the “Tumor Volume” value is reported as 1,982 ± 327 mm^3 in data set [3] (Paclitaxel 15 mg/kg, day 19) and 1982 mm^3 in data set [3] (Paclitaxel 15 mg/kg, day 19, listed as paclitaxel). Also, the “T/C (%)” value in data set [3] (Paclitaxel 15 mg/kg, day 19) was determined as 65.5%. Also, the “TGI (%) tumor growth inhibition” value in data set [3] (Paclitaxel 15 mg/kg, day 19) was 34.5%.

(Values after patent publication US11185542B2, “Uses of dopamine beta-hydroxylase (DBH) inhibitors and serotonin receptor (5-HT) antagonists for the treatment of cancer” (Jiangsu Yahong Meditech Co., Ltd., priority 2016, dated 2021).)
